According to PubChem BioAssay (NCI):
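Growth conditions: 96-well plates. Treatment: test compound, 48 hours, 5 concentrations. Analysis: linear interpolation between bracketing concentrations; unreached endpoints set to highest concentration. GI50: concentration for 50% inhibition of growth. Definition used: TGI = concentration required for complete inhibition of growth.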

Tests used:
Experiment in all cases: DTP human tumour cell line panel, 48 h
786-0 renal = system: 786-0 renal
A498 renal = system: A498 renal
A549 NSCLC = system: A549 NSCLC
ACHN renal = system: ACHN renal
BT-549 breast = system: BT-549 breast
CAKI-1 renal = system: CAKI-1 renal
CCRF-CEM leukemia = system: CCRF-CEM leukemia
COLO 205 colon = system: COLO 205 colon
DU-145 prostate = system: DU-145 prostate
EKVX NSCLC = system: EKVX NSCLC
HCT-116 colon = system: HCT-116 colon
HCT-15 colon = system: HCT-15 colon
HL-60(TB) leukemia = system: HL-60(TB) leukemia
HOP-92 NSCLC = system: HOP-92 NSCLC
HS 578T breast = system: HS 578T breast
HT29 colon = system: HT29 colon
IGROV1 ovarian = system: IGROV1 ovarian
K-562 leukemia = system: K-562 leukemia
KM12 colon = system: KM12 colon
LOX IMVI melanoma = system: LOX IMVI melanoma
M14 melanoma = system: M14 melanoma
MCF7 breast = system: MCF7 breast
MDA-MB-231 breast = system: MDA-MB-231 breast
MDA-MB-435 = system: MDA-MB-435
MDA-N = system: MDA-N
MOLT-4 leukemia = system: MOLT-4 leukemia
NCI-H226 lung = system: NCI-H226 lung
NCI-H23 lung = system: NCI-H23 lung
NCI-H460 lung = system: NCI-H460 lung
NCI-H522 lung = system: NCI-H522 lung
NCI/ADR-RES ovarian = system: NCI/ADR-RES ovarian
OVCAR-3 ovarian = system: OVCAR-3 ovarian
OVCAR-4 ovarian = system: OVCAR-4 ovarian
OVCAR-5 ovarian = system: OVCAR-5 ovarian
OVCAR-8 ovarian = system: OVCAR-8 ovarian
PC-3 prostate = system: PC-3 prostate
RPMI-8226 leukemia = system: RPMI-8226 leukemia
RXF 393 renal = system: RXF 393 renal
SF-268 CNS = system: SF-268 CNS
SF-295 CNS = system: SF-295 CNS
SF-539 CNS = system: SF-539 CNS
SK-MEL-2 melanoma = system: SK-MEL-2 melanoma
SK-MEL-5 melanoma = system: SK-MEL-5 melanoma
SK-OV-3 ovarian = system: SK-OV-3 ovarian
SN12C renal = system: SN12C renal
SNB-19 CNS = system: SNB-19 CNS
SNB-75 CNS = system: SNB-75 CNS
SR leukemia = system: SR leukemia
SW-620 colon = system: SW-620 colon
T-47D breast = system: T-47D breast
TK-10 renal = system: TK-10 renal
U251 CNS = system: U251 CNS
UACC-257 melanoma = system: UACC-257 melanoma
UACC-62 melanoma = system: UACC-62 melanoma
UO-31 renal = system: UO-31 renal
HCC-2998 colon = system: HCC-2998 colon
HOP-62 NSCLC = system: HOP-62 NSCLC
MALME-3M melanoma = system: MALME-3M melanoma
SK-MEL-28 melanoma = system: SK-MEL-28 melanoma

## CSc1ncc2c(n1)-c1ccccc1OC2N1CCCC1 (configuration not stated)
786-0 renal
  TGI: > 100 µM
A498 renal
  TGI: 26.1 µM
A549 NSCLC
  TGI: > 100 µM
ACHN renal
  TGI: > 100 µM
BT-549 breast
  TGI: > 100 µM
CAKI-1 renal
  TGI: 83.4 µM
CCRF-CEM leukemia
  TGI: > 100 µM
COLO 205 colon
  TGI: > 100 µM
DU-145 prostate
  TGI: > 100 µM
EKVX NSCLC
  TGI: > 100 µM
HCT-116 colon
  TGI: > 100 µM
HCT-15 colon
  TGI: > 100 µM
HL-60(TB) leukemia
  TGI: > 100 µM
HOP-92 NSCLC
  TGI: > 100 µM
HS 578T breast
  TGI: > 100 µM
HT29 colon
  TGI: > 100 µM
IGROV1 ovarian
  TGI: > 100 µM
K-562 leukemia
  TGI: > 100 µM
KM12 colon
  TGI: > 100 µM
LOX IMVI melanoma
  TGI: > 100 µM
M14 melanoma
  TGI: > 100 µM
MCF7 breast
  TGI: > 100 µM
MDA-MB-231 breast
  TGI: > 100 µM
MDA-MB-435
  TGI: > 100 µM
MDA-N
  TGI: > 100 µM
MOLT-4 leukemia
  TGI: > 100 µM
NCI-H226 lung
  TGI: > 100 µM
NCI-H23 lung
  TGI: > 100 µM
NCI-H460 lung
  TGI: > 100 µM
NCI-H522 lung
  TGI: > 100 µM
NCI/ADR-RES ovarian
  TGI: > 100 µM
OVCAR-3 ovarian
  TGI: > 100 µM
OVCAR-4 ovarian
  TGI: > 100 µM
OVCAR-5 ovarian
  TGI: > 100 µM
OVCAR-8 ovarian
  TGI: > 100 µM
PC-3 prostate
  TGI: > 100 µM
RPMI-8226 leukemia
  TGI: > 100 µM
RXF 393 renal
  TGI: > 100 µM
SF-268 CNS
  TGI: > 100 µM
SF-295 CNS
  TGI: > 100 µM
SF-539 CNS
  TGI: > 100 µM
SK-MEL-2 melanoma
  TGI: > 100 µM
SK-MEL-5 melanoma
  TGI: > 100 µM
SK-OV-3 ovarian
  TGI: > 100 µM
SN12C renal
  TGI: > 100 µM
SNB-19 CNS
  TGI: > 100 µM
SNB-75 CNS
  TGI: > 100 µM
SR leukemia
  TGI: > 100 µM
SW-620 colon
  TGI: > 100 µM
T-47D breast
  TGI: > 100 µM
TK-10 renal
  TGI: > 100 µM
U251 CNS
  TGI: > 100 µM
UACC-257 melanoma
  TGI: > 100 µM
UACC-62 melanoma
  TGI: > 100 µM
UO-31 renal
  TGI: > 100 µM

## COc1cc2ccnc3c2c(c1O)N(C)C=C3
786-0 renal
  TGI: 21.8 µM
A498 renal
  TGI: 23.4 µM
A549 NSCLC
  TGI: 50.3 µM
ACHN renal
  TGI: 27.6 µM
BT-549 breast
  TGI: 22.9 µM
CAKI-1 renal
  TGI: 20.6 µM
CCRF-CEM leukemia
  TGI: > 100 µM
COLO 205 colon
  TGI: > 63.1 µM
DU-145 prostate
  TGI: > 62 µM
EKVX NSCLC
  TGI: 33.4 µM
HCC-2998 colon
  TGI: 48.2 µM
HCT-116 colon
  TGI: 16.4 µM
HCT-15 colon
  TGI: > 64.2 µM
HOP-62 NSCLC
  TGI: 46.4 µM
HOP-92 NSCLC
  TGI: > 100 µM
HS 578T breast
  TGI: 53.1 µM
IGROV1 ovarian
  TGI: 26.1 µM
K-562 leukemia
  TGI: > 100 µM
KM12 colon
  TGI: 40.2 µM
LOX IMVI melanoma
  TGI: > 50.6 µM
M14 melanoma
  TGI: 37 µM
MALME-3M melanoma
  TGI: 21.7 µM
MCF7 breast
  TGI: > 91.6 µM
MDA-MB-231 breast
  TGI: > 71.1 µM
MDA-MB-435
  TGI: > 86.5 µM
MDA-N
  TGI: > 38.4 µM
MOLT-4 leukemia
  TGI: > 100 µM
NCI-H226 lung
  TGI: 37.4 µM
NCI-H23 lung
  TGI: 37.5 µM
NCI-H460 lung
  TGI: > 66 µM
NCI/ADR-RES ovarian
  TGI: 54.5 µM
OVCAR-3 ovarian
  TGI: 17.8 µM
OVCAR-4 ovarian
  TGI: 32.4 µM
OVCAR-5 ovarian
  TGI: 33.9 µM
OVCAR-8 ovarian
  TGI: > 46.8 µM
PC-3 prostate
  TGI: 29.5 µM
RPMI-8226 leukemia
  TGI: > 100 µM
RXF 393 renal
  TGI: 30 µM
SF-268 CNS
  TGI: 36.6 µM
SF-295 CNS
  TGI: 28.6 µM
SK-MEL-2 melanoma
  TGI: 33.9 µM
SK-MEL-28 melanoma
  TGI: > 66.2 µM
SK-MEL-5 melanoma
  TGI: 32.5 µM
SK-OV-3 ovarian
  TGI: 27.4 µM
SN12C renal
  TGI: > 61.2 µM
SNB-19 CNS
  TGI: > 62.9 µM
SNB-75 CNS
  TGI: 38.8 µM
SR leukemia
  TGI: > 100 µM
SW-620 colon
  TGI: > 100 µM
T-47D breast
  TGI: > 24.7 µM
TK-10 renal
  TGI: 32.9 µM
U251 CNS
  TGI: > 100 µM
UACC-257 melanoma
  TGI: 32.5 µM
UACC-62 melanoma
  TGI: 25.6 µM
UO-31 renal
  TGI: 22.3 µM

## CC(=O)Oc1cc(C)ccc1[C@]1(C)CC[C@H](C)/C1=C\Br
786-0 renal
  GI50: 4.09 µM
  TGI: 14.3 µM
A498 renal
  GI50: 5.2 µM
  TGI: 17.1 µM
A549 NSCLC
  GI50: 4.98 µM
  TGI: 17.3 µM
ACHN renal
  GI50: 5.7 µM
  TGI: 20.1 µM
BT-549 breast
  GI50: 4.1 µM
  TGI: 17.6 µM
CAKI-1 renal
  GI50: 3.53 µM
  TGI: 14.3 µM
CCRF-CEM leukemia
  GI50: 2.75 µM
  TGI: 10.1 µM
COLO 205 colon
  GI50: 2.3 µM
  TGI: 5.33 µM
DU-145 prostate
  GI50: 4.87 µM
  TGI: 16.9 µM
EKVX NSCLC
  GI50: 6.67 µM
  TGI: 18.5 µM
HCT-116 colon
  GI50: 4.44 µM
  TGI: 18.8 µM
HCT-15 colon
  GI50: 4.51 µM
  TGI: 19.2 µM
HL-60(TB) leukemia
  GI50: 3.41 µM
  TGI: 15 µM
HOP-62 NSCLC
  GI50: 9.22 µM
  TGI: 22.2 µM
HOP-92 NSCLC
  GI50: 2.03 µM
  TGI: 12.9 µM
HS 578T breast
  GI50: 3.03 µM
  TGI: 13.9 µM
HT29 colon
  GI50: 2.45 µM
  TGI: 5.06 µM
IGROV1 ovarian
  GI50: 7.6 µM
  TGI: 26.6 µM
K-562 leukemia
  GI50: 3.71 µM
  TGI: 11.4 µM
KM12 colon
  GI50: 2.92 µM
  TGI: 12 µM
LOX IMVI melanoma
  GI50: 4.77 µM
  TGI: 17.1 µM
M14 melanoma
  GI50: 6.31 µM
  TGI: 19.6 µM
MALME-3M melanoma
  GI50: 2.95 µM
  TGI: 10.2 µM
MCF7 breast
  GI50: 4.07 µM
  TGI: 15.3 µM
MDA-MB-231 breast
  GI50: 9.04 µM
  TGI: 23.9 µM
MDA-MB-435
  GI50: 1.49 µM
  TGI: 3.89 µM
MDA-N
  GI50: 2.36 µM
  TGI: 7.16 µM
MOLT-4 leukemia
  GI50: 5.22 µM
  TGI: 22.8 µM
NCI-H23 lung
  GI50: 6.54 µM
  TGI: 20.3 µM
NCI-H460 lung
  GI50: 4.17 µM
  TGI: 15.2 µM
NCI-H522 lung
  GI50: 5.28 µM
  TGI: 22.7 µM
NCI/ADR-RES ovarian
  GI50: 2.68 µM
  TGI: 7.94 µM
OVCAR-3 ovarian
  GI50: 2.61 µM
  TGI: 7.16 µM
OVCAR-4 ovarian
  GI50: 2.87 µM
  TGI: 12.6 µM
OVCAR-5 ovarian
  GI50: 6.9 µM
  TGI: 19.5 µM
OVCAR-8 ovarian
  GI50: 5.05 µM
  TGI: 21 µM
PC-3 prostate
  GI50: 3.33 µM
  TGI: 12.3 µM
RPMI-8226 leukemia
  GI50: 2.71 µM
  TGI: 8.09 µM
RXF 393 renal
  GI50: 3.86 µM
  TGI: 15.9 µM
SF-268 CNS
  GI50: 4.76 µM
  TGI: 17.9 µM
SF-295 CNS
  GI50: 3.96 µM
  TGI: 13.2 µM
SF-539 CNS
  GI50: 2.32 µM
  TGI: 5.1 µM
SK-MEL-2 melanoma
  GI50: 7.21 µM
  TGI: 24.7 µM
SK-MEL-28 melanoma
  GI50: 3.62 µM
  TGI: 15.6 µM
SK-MEL-5 melanoma
  GI50: 3.32 µM
  TGI: 11.5 µM
SK-OV-3 ovarian
  GI50: 2.43 µM
  TGI: 7.65 µM
SN12C renal
  GI50: 9.24 µM
  TGI: 25.3 µM
SNB-19 CNS
  GI50: 3.97 µM
  TGI: 17.4 µM
SR leukemia
  GI50: 2.72 µM
  TGI: 12.8 µM
SW-620 colon
  GI50: 5.31 µM
  TGI: 17.1 µM
T-47D breast
  GI50: 5.38 µM
  TGI: 23.4 µM
TK-10 renal
  GI50: 3.6 µM
  TGI: 12.5 µM
U251 CNS
  GI50: 4.92 µM
  TGI: 16.6 µM
UACC-257 melanoma
  GI50: 8.28 µM
  TGI: 20.8 µM
UACC-62 melanoma
  GI50: 5.98 µM
  TGI: 19.7 µM
UO-31 renal
  GI50: 8.43 µM
  TGI: 34 µM
